Test results published in ChEMBL document CHEMBL1153678, “Bromobenzofurans : a new class of potent, non-peptide antagonists of angiotensin II” (Bioorg Med Chem Lett, 1991).

biological target: T1, Type-1 angiotensin II receptor (Oryctolagus cuniculus) (UniProt P34976); test: Angiotensin II receptor, type 1 antagonist activity in rabbit isolated thoracic aorta; type: functional, tissue-based
T1 sequence (whole entry): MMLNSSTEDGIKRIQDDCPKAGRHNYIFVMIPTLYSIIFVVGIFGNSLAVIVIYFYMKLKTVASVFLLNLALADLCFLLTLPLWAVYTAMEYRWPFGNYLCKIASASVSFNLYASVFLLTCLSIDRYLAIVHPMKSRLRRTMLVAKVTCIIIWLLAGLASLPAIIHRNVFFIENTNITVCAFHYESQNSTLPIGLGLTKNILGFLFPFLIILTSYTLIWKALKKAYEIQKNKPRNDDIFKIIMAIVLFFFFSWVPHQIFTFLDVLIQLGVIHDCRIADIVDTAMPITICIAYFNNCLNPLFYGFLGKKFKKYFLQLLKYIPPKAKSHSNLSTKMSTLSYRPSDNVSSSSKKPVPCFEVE

Point of comparison: `CCCCc1nc(Cl)c(CO)n1Cc1ccc(-c2ccccc2C(=O)O)cc1`, pKB 6.9. Against it:
- CCCCc1nc(Cl)c(C(=O)O)n1Cc1ccc(-c2ccccc2-c2nn[nH]n2)cc1 — higher, 10.6
- CCCCc1nc(Cl)c(CO)n1Cc1ccc(-c2ccccc2-c2nnn[nH]2)cc1 — higher, 8.4
